In patent publication US7935680B2, “Methods for modulating the axonal growth of central nervous system neurons” (Children's Medical Center Corporation, priority 1997, dated 2011):
“Also recorded” adds a separate entry of the source.

B1: ADA: exogenous adenosine deaminase enzyme (protein, UniProt P00813 2-363, looked up)
Adenosine deaminase: AQTPAFDKPKVELHVHLDGSIKPETILYYGRRRGIALPANTAEGLLNVIGMDKPLTLPDFLAKFDYYMPAIAGCREAIKRIAYEFVEMKAKEGVVYVEVRYSPHLLANSKVEPIPWNQAEGDLTPDEVVALVGQGLQEGERDFGVKARSILCCMRHQPNWSPKVVELCKKYQQQTVVAIDLAGDETIPGSSLLPGHVQAYQEAVKSGIHRTVHAGEVGSAEVVKEAVDILKTERLGHGYHTLEDQALYNRLRQENMHFEICPWSSYLTGAWKPDTEHAVIRLKNDQANYSLNTDDPLIFKSTLDTDYQMTKRDMGFTEEEFKRLNINAAKSSFLPEDEKRELLDLLYKAYGMPPSASAGQNL

Experiments:
Format in all cases: cell-based
GAP-43 = GAP-43 immunohistochemistry in goldfish retinal ganglion cells; details: for GAP-43 levels relative to L-15 treated controls: immunostaining
Protocol: One hallmark of optic nerve regeneration in vivo is the enhanced expression of the membrane phosphoprotein GAP-43. To investigate whether this upregulation is induced by purines, immunohistochemistry was carried out using a polyclonal rabbit antiserum against recombinant […] GAP-43. Recombinant zebrafish GAP-43 was made by transforming E. coli with a cDNA isolated by Dr. Eva Reinhard, University of Basel, Switzerland (see Reinhard et al., Development, 120: 1757-1775, 1994, the contents of which are incorporated herein by reference) subcloned into the prokaryotic expression vector pTrcHisB (Invitrogen). The protein produced was purified by Ni^2+-NTA-affinity chromatography and used to immunize rabbits. […] Inosine produced a 5.5-fold increase in the number of intensely stained cells over L-15, whereas AF-1 produced a 8-fold increase. In all 3 cases, the intensity of GAP-43 immunostaining correlated strongly with axonal length.

[1] = test system: goldfish retinal ganglion cells; assay: Axonal outgrowth from dissociated goldfish retinal ganglion cell cultures; details: for EC50: goldfish RGCs, 6 days, estimated from dose-response curves; for outgrowth at higher concentrations: concentrations above those giving the maximal response; for dependence of outgrowth on cell density: fixed concentration (100 μM), 3-4-fold range of cell densities; for axonal outgrowth activity: tested at concentrations between 1-100 μM; for Emax: read-out: maximal response relative to the level induced by AF-1; for restoration of AF-1-induced growth in the presence of 10 μM 6-TG: inosine 100 μM
Protocol: Axogenesis factor-1 was obtained essentially as described in Schwalb et al., 1995, and Schwalb et al., Neuroscience, 72: 901-910, 1996, the contents of which are incorporated herein by reference). Optic nerves were dissected, cut into fragments 1 mm in length, and incubated in a ratio of 6 nerves in 3 ml of either L-15 media (Gibco BRL) or phosphate-buffered saline (Gibco BRL). After 3-4 hours, nerve fragments were removed by filtering through a 0.22 μm pore low protein-binding filter (Gelman). A low molecular weight fraction of the conditioned media was prepared by ultrafiltration, first with a molecular weight cut-off of 3 kDa (Amicon Centriprep-3), then with a cut-off of 1 kDa (Filtron). The filtrate was used as a positive control at 20-30% final concentration. […] Goldfish (Comet Variety, Mt. Parnell Fisheries, Mt. Parnell Pa.), 6-10 cm in length, were dark-adapted and their retinas dissected. Retinas were incubated with papain (20 μg/ml), activated with cysteine (2.8 mM) for 30 minutes at room temperature, then dissociated by gentle trituration. […] Neuroscience 15: 5514-5625, 1995, the contents of which are incorporated herein by reference). […] Cells were maintained at 21° C. in serum free, defined media containing insulin, selenium, transferrin, bovine serum albumin, catalase, superoxide dismutase, hormones, and vitamins in Eagle's L-15 media as described in Schwalb et al., 1995, the contents of which are incorporated herein by reference). Dissociated cultures of purified rat retinal ganglion cells were prepared by immunopanning as described in Barres et al., Neuron, 1: 791-803, 1988, the contents of which are incorporated herein by reference). In brief, retinas from postnatal day 8 Sparague-Dawley rats were dissociated using papain activated with cysteine. Macrophages were removed by incubation with an anti-rat macrophage antibody (Accurate) followed by immunopanning with an anti-rabbit 1gG antibody. Ganglion cells were isolated by immunopanning with an anti-Thy-1 antibody, then dislodged with trypsin for use in low-density cultures. Rat retinal ganglion cells were maintained at 37° C. in a CO2 incubator using the same medium described above except for the presence of 30 mM bicarbonate. In a typical experiment, samples were plated in quadruplicate in randomized positions of a 24-well plate and the code was concealed to ensure that growth was evaluated in a blinded fashion. Each experiment contained 4 wells of a negative control (media plus supplements only) and 4 wells of a positive control (a standardized AF-1 sample of known activity). […] After the completion of counting, the code was broken, the data tabulated, and means and standard errors were calculated for the 4 replicate wells of each sample using Cricket Graph (CA Associates, […].). […] Group comparisons were based upon pairwise, 2-tailed Student's t-tests. Several independent experiments were performed for most samples, as noted in the figure legends. […] Cell survival is reported as the number of viable RGCs per high-powered field.

[2] = test system: rat retinal ganglion cells; assay: Axonal outgrowth from purified rat retinal ganglion cells; details: rat RGCs
Protocol: Goldfish (Comet Variety, Mt. Parnell Fisheries, Mt. Parnell Pa.), 6-10 cm in length, were dark-adapted and their retinas dissected. Retinas were incubated with papain (20 μg/ml), activated with cysteine (2.8 mM) for 30 minutes at room temperature, then dissociated by gentle trituration. Repeated cycles of trituration and sedimentation yielded cultures nearly homogeneous in ganglion cells, which are readily identified by their oval shape, phase-bright appearance, size (diameter 15 μm), and extension of only 1 or 2 neurites of uniform caliber; these criteria have been verified by retrograde labeling (see Schwartz & Agranoff, Brain Res. 206: 331-343, 1981 and Schwalb et al., J. Neuroscience 15: 5514-5625, 1995, the contents of which are incorporated herein by reference). Low density cultures were achieved by plating c. 5×10^3 cells/well into poly L-lysine coated, 24-well culture dishes (Costar, Cambridge, Mass.). Cells were maintained at 21° C. in serum free, defined media containing insulin, selenium, transferrin, bovine serum albumin, catalase, superoxide dismutase, hormones, and vitamins in Eagle's L-15 media as described in Schwalb et al., 1995, the contents of which are incorporated herein by reference). Dissociated cultures of purified rat retinal ganglion cells were prepared by immunopanning as described in Barres et al., Neuron, 1: 791-803, 1988, the contents of which are incorporated herein by reference). In brief, retinas from postnatal day 8 Sparague-Dawley rats were dissociated using papain activated with cysteine. Macrophages were removed by incubation with an anti-rat macrophage antibody (Accurate) followed by immunopanning with an anti-rabbit 1gG antibody. Ganglion cells were isolated by immunopanning with an anti-Thy-1 antibody, then dislodged with trypsin for use in low-density cultures. Rat retinal ganglion cells were maintained at 37° C. in a CO2 incubator using the same medium described above except for the presence of 30 mM bicarbonate.
In a typical experiment, samples were plated in quadruplicate in randomized positions of a 24-well plate and the code was concealed to ensure that growth was evaluated in a blinded fashion. Each experiment contained 4 wells of a negative control (media plus supplements only) and 4 wells of a positive control (a standardized AF-1 sample of known activity). Growth and survival were assessed after 6 days for all ganglion cells in 25 consecutive fields of each well using phase contrast microscopy at 400× magnification (c. 150 ganglion cells counted per well). Extension of a process 5 cell diameters in length was the criterion for growth, since it clearly distinguishes stimulated cells from negative controls (see Schwalb et al., 1995). After the completion of counting, the code was broken, the data tabulated, and means and standard errors were calculated for the 4 replicate wells of each sample using Cricket Graph (CA Associates, Islandia, N.Y.). Data were normalized by subtracting the growth in the negative controls (usually 4-5%) and dividing by the net growth in the positive controls. In the most favorable experiments, more than 50% of retinal ganglion cells (RGCs) exposed to AF-1 extended axons 5 cell diameters in length after 6 days. Group comparisons were based upon pairwise, 2-tailed Student's t-tests. Several independent experiments were performed for most samples, as noted in the figure legends. In some cases, cell viability was assessed with the dye 5,6-carboxyfluorescein diacetate. […]

[3] = test system: goldfish retinal ganglion cells; assay: Cell survival in goldfish retinal ganglion cell cultures (viable RGCs per field)
Protocol: Goldfish (Comet Variety, Mt. Parnell Fisheries, Mt. Parnell Pa.), 6-10 cm in length, were dark-adapted and their retinas dissected. Retinas were incubated with papain (20 μg/ml), activated with cysteine (2.8 mM) for 30 minutes at room temperature, then dissociated by gentle trituration. […] Low density cultures were achieved by plating c. 5×10^3 cells/well into poly L-lysine coated, 24-well culture dishes (Costar, Cambridge, Mass.). […] In brief, retinas from postnatal day 8 Sparague-Dawley rats were dissociated using papain activated with cysteine. Macrophages were removed by incubation with an anti-rat macrophage antibody (Accurate) followed by immunopanning with an anti-rabbit 1gG antibody. Ganglion cells were isolated by immunopanning with an anti-Thy-1 antibody, then dislodged with trypsin for use in low-density cultures. Rat retinal ganglion cells were maintained at 37° C. in a CO2 incubator using the same medium described above except for the presence of 30 mM bicarbonate.
In a typical experiment, samples were plated in quadruplicate in randomized positions of a 24-well plate and the code was concealed to ensure that growth was evaluated in a blinded fashion. Each experiment contained 4 wells of a negative control (media plus supplements only) and 4 wells of a positive control (a standardized AF-1 sample of known activity). Growth and survival were assessed after 6 days for all ganglion cells in 25 consecutive fields of each well using phase contrast microscopy at 400× magnification (c. 150 ganglion cells counted per well). […] After the completion of counting, the code was broken, the data tabulated, and means and standard errors were calculated for the 4 replicate wells of each sample using Cricket Graph (CA Associates, Islandia, N.Y.). Data were normalized by subtracting the growth in the negative controls (usually 4-5%) and dividing by the net growth in the positive controls. […] Group comparisons were based upon pairwise, 2-tailed Student's t-tests. Several independent experiments were performed for most samples, as noted in the figure legends. In some cases, cell viability was assessed with the dye 5,6-carboxyfluorescein diacetate. Cell survival is reported as the number of viable RGCs per high-powered field.

[4] = Carassius auratus, normalized to AF-1 positive control, adenosine 50-100 μM, guanosine 100 μM, inosine above 25 or 50 μM

Molecule	GAP-43 levels relative to L-15 treated controls (GAP-43)	EC50 ([1]; Carassius auratus, 144 h)	outgrowth at higher concentrations [1]	dependence of outgrowth on cell density [1]	EC50 [1]	maximal response relative to the level induced by AF-1 ([1]; normalized to AF-1 positive control, adenosine 50-100 μM, guanosine 100 μM, inosine above 25 or 50 μM)	axonal outgrowth activity [1]	increase in the number of intensely stained cells over L-15 (GAP-43; GAP-43 immunoreactivity score 2 (intense), 150-200 cells)	Emax [1, 4]	restoration of AF-1-induced growth in the presence of 10 μM 6-TG [1]	restoration of AF-1-induced growth in the presence of 10 μM 6-TG ([1]; listed as Inosine)	combined effect with AF-1 ([1]; inosine and AF-1 at saturating / higher concentrations)	combined effect with AF-1 ([1]; inosine and AF-1 each at EC50 (half-maximal) levels)	restoration of CNTF stimulated growth in the presence of 10 μM 6-TG ([2]; inosine 25 μM)	restoration of CNTF-induced outgrowth in the presence of 10 μM 6-TG ([2]; inosine 50 μM)	increase in the number of cells extending axons 5 cell diameters in length ([2]; inosine at 25 or 50 μM)	cell survival when ADA is blocked with DCF [3]	outgrowth when adenosine hydrolysis is blocked ([1]; 100 μM adenosine in the presence of 10 μM DCF)	effect on cell survival ([3]; exogenous ADA 0.4 U/ml with 100 μM adenosine)	effect on outgrowth stimulated by 100 μM adenosine ([1]; exogenous ADA 0.4 U/ml)
Nc1nc2c(ncn2[C@@H]2O[C@H](CO)[C@@H](O)[C@H]2O)c(=O)[nH]1 [guanosine]	large increase in GAP-43 levels	20 to 30 µM	no obvious decrease in activity	growth is not a function of cell density; also recorded: independent of cell density	25 µM	same maximal level of activity as adenosine	stimulated almost as much outgrowth from goldfish retinal ganglion cells as AF-1													
OC[C@H]1O[C@@H](n2cnc3c(O)ncnc32)[C@H](O)[C@@H]1O [inosine]	large increase in GAP-43 levels	10 to 15 µM	did not cause growth to decline	growth is not a function of cell density; also recorded: independent of cell density				5.5 fold	~60%	fully restored the growth induced by AF-1	restored all of the growth induced by AF-1	growth saturates at the level stimulated by high AF-1 levels alone; also recorded: growth reached a plateau level	additive effects	fully restored	restored CNTF-induced outgrowth nearly to its original level	50%				
Nc1ncnc2c1ncn2[C@@H]1O[C@H](CO)[C@@H](O)[C@H]1O [adenosine]		10 to 15 µM	outgrowth decreased				stimulated almost as much outgrowth from goldfish retinal ganglion cells as AF-1		60%								causes adenosine to suppress growth (e, top) and survival	suppress growth; also recorded: failed to stimulate growth, but caused it to decline below baseline levels		
B1																			did not diminish axon outgrowth stimulated by 100 μM adenosine or affect cell survival	unaltered; also recorded: did not diminish axon outgrowth
